Patent US9834525B2, “Inhibitors of paxillin function and related compositions and methods” (UNIVERSITY OF TENNESSEE RESEARCH FOUNDATION, priority 2015, dated 2017)
Entries after “also recorded” stand apart in the source; their conditions may differ. Like-named read-outs stand apart in the source and are kept apart here.

Assays:
[1] = system: UM tumor cells; experiment: Phalloidin (F-actin) analysis by flow cytometry in UM cells; format: cell-based, human; conditions: treatment for 24 hrs
Method: Retinal endothelial cells (REC) and UM-OMM 2.5 cells were harvested, washed and counted. 1.0×10^6 cells were fixed for 1 hr at 4° C. and permeabilized with the Intracellular Fixation and Permeabilization Buffer Kit (eBiosciences, San Diego, Calif.). Cells were washed followed by Alexa-Fluor 647 Phalloidin (MOLECULAR PROBES, Life Technologies, Carlsbad, Calif.) labeling using 1 U/μL. Cells were washed and analyzed using BD LSR II followed by analysis using FlowJo xV10.0.6 software.
Next, it was investigated if reduced numbers were a consequence of a reduction in UM cells proliferation. Cell cultures in the presence or absence of compound (II-4) were analyzed by follow cytometry for cytoskeletal fragmentation and proliferation. Uncontrolled cytoskeletal remodeling and cell proliferation are considered hallmarks of tumor growth and metastasis. […]
FIG. 15: The paxillin inhibitor Compound (II-4) selectively affects cellular proliferation of primary UM cells that become metastatic. […] Unlabeled cells were used to control fluorescence. […] B. Quantitation of experiment +/−SD including primary UM that becomes metastatic (Mel 270), metastatic (OMM 2.1) and primary (92.1) UM cells. *P=0.0007 and **P=0.0005. […] Quantitation of VLA-4 protein levels +/−SD from n=3. […]

[2] = system: retinal endothelial cells (REC); experiment: REC scratch-wound assay, VEGF-induced migration; format: cell-based, human; conditions: for IC50: Homo sapiens, Endothelial cell
Method: RECs were wounded and treated with VEGF (20 ng/mL) and either compound (II-4) (1 μM) or vehicle. Compound (II-4) reduced migration by ˜10-fold when measured 24 hrs post-scratch. (*P<0.001; n=6).
Two methods of evaluating VEGF-induced REC migration were used to assess the impact of compound (II-4) on paxillin-mediated migration: the scratch assay and the transwell (Boyden chamber) cell migration assay. To test if paxillin inhibition would reduce VEGF-induced REC migration, RECs were wounded and treated with VEGF ([…]) +/− compound (II-4) ([…]). Wound closure was monitored by phase microscopy over 24 hours and area of wound closure was calculated using the sophisticated image analysis tools in Adobe Photoshop. Cells were then fixed and nuclei were stained using DAPI to show extent of cell migration.
FIG. 2: REC scratch-wound assay. RECs were wounded and treated with VEGF (20 ng/mL) and either compound (II-4) (1 μM) or vehicle. Compound (II-4) reduced migration by ˜10-fold when measured 24 hrs post-scratch. (*P<0.001; n=6)
FIG. 17: REC migration. A) Increasing concentrations of compound (II-4) inhibit VEGF-induced migration in a scratch wound assay; [Serum Free-control, VEGF (100 ng/mL), VEGF+100 nM, 500 nM, 10 μM, 100 μM] (IC50≈180 ηM; n=6/group). Cells were stained with DAPI for representative images. B) RECs seeded onto transwell membranes were stimulated with VEGF+ vehicle or compound (II-4) for 24 hrs. Cells were removed from the topside of membrane and migrated cells were stained with DAPI [Serum-Free (SF), VEGF, +100, +500 nM, respectively]. Cell number was measured using fluorescence microscopy. All data are mean±SD (*, # P<0.001)

[3] = target: T1, CYP2D6 (Homo sapiens, UniProt P10635); experiment: CYP-450 interaction study in pooled human liver microsomes, CYP2D6; format: in vitro ADME; conditions: 1 μM
T1 construct: from tissue; host or cells: pooled human liver microsomes
T1 sequence (P10635 whole entry): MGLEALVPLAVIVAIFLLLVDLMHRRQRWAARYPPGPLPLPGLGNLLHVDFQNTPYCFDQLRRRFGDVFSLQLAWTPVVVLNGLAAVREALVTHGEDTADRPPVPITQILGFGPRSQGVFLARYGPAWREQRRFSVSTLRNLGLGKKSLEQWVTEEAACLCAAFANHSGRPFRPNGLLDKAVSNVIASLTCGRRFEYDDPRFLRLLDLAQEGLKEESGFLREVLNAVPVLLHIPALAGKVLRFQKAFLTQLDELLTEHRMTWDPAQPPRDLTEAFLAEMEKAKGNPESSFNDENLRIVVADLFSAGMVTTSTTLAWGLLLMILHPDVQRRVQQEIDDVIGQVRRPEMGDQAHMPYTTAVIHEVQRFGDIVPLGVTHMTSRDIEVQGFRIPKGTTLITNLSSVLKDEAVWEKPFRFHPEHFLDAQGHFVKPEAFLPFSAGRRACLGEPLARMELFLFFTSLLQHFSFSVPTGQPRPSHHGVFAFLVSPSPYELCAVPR
Method: CYP-450 interaction studies were conducted in pooled human liver microsomes (FIG. 8). CYP-450 inhibition (%) by compound (II-4) (1 μM) was compared to control inhibitors (1 μM) for the most common CYP-450 isoforms, CYP3A4, CYP2C9, CYP2D6, CYP2C19, and CYP1A2.
CYP-450 interaction studies were conducted in pooled human liver microsomes (FIG. 24). CYP-450 inhibition (%) by compound (II-4) (1 μM) was compared to control inhibitors (1 μM) for the most common CYP-450 isoforms, 3A4, 2C9, 2D6, 2C19, and 1A2.

COc1cc(C2OC(=O)Nc3c2ccc2ccccc32)cc(OC)c1OC (centres unmarked) [compound II-4]
actin remodeling (intracellular phalloidin, F-actin) [1]: no difference in actin remodeling | IC50 ([2]; VEGF (100 ng/mL), n=6/group, read-out: IC50, inhibition of VEGF-induced migration in scratch wound assay): ~180 nM | IC50 ([2]; wound closure at 24 hours, VEGF (100 μg/mL), compound 100 μM to 10 μM as printed, read-out: IC50, inhibition of VEGF-induced REC migration (wound closure)): 181 nM | reduction of migration in REC scratch-wound assay ([2]; VEGF (20 ng/mL), compound (II-4) 1 μM vs vehicle, 24 hrs post-scratch): ~10 fold | CYP-450 inhibition, CYP2D6 [3]: lack of significant inhibition; also recorded: lacks significant inhibition
